Patent publication US12559506B2, “Indazole based compounds and associated methods of use” (Arvinas Operations, Inc., priority 2021, dated 2026)
Where two headings read alike, the source gives them in different places.

Target: T1, LRRK2 (endogenous, HiBit tagged) (Homo sapiens, UniProt Q5S007)
T1 construct: endogenous in cells; host or cells: HEK293 cells with HiBit knock-in at the endogenous LRRK2 locus, stably expressing firefly luciferase
Assay: Endogenous LRRK2 degradation assay, endogenous gene C-terminally HiBit-tagged in HEK293 cells (Nano-Glo Dual Luciferase)
Format: cell-based
In short: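 LRRK2-HiBit quantified via Nano-Glo Dual Luciferase in HEK293 knock-in cells co-expressing firefly luciferase, after 24 h exposure to compound (1 μM final top, 1:3, 11 points). Values normalised to DMSO median per plate and curve-fitted; Alamar Blue viability run alongside.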

[1] = endogenous HiBit-tagged LRRK2 in HEK293 cells, 24 hours treatment, read-out: Endogenous WT DC50
[2] = endogenous HiBit-tagged LRRK2 in HEK293 cells, 24 hours treatment, read-out: Endogenous WT Dmax
[3] = endogenous HiBit-tagged LRRK2, HEK293 cells, 24 hours, read-out: **Endogenous WT Dmax (%)
[4] = endogenous HiBit-tagged LRRK2, HEK293 cells, 24 hours, read-out: *Endogenous WT DC50
[5] = endogenous HiBit-tagged LRRK2 in HEK293 cells, 24 hours treatment, read-out: **Endogenous WT Dmax (%)
[6] = endogenous HiBit-tagged LRRK2 in HEK293 cells, 24 hours treatment, read-out: *Endogenous WT DC50

T1 sequence (Q5S007 whole entry): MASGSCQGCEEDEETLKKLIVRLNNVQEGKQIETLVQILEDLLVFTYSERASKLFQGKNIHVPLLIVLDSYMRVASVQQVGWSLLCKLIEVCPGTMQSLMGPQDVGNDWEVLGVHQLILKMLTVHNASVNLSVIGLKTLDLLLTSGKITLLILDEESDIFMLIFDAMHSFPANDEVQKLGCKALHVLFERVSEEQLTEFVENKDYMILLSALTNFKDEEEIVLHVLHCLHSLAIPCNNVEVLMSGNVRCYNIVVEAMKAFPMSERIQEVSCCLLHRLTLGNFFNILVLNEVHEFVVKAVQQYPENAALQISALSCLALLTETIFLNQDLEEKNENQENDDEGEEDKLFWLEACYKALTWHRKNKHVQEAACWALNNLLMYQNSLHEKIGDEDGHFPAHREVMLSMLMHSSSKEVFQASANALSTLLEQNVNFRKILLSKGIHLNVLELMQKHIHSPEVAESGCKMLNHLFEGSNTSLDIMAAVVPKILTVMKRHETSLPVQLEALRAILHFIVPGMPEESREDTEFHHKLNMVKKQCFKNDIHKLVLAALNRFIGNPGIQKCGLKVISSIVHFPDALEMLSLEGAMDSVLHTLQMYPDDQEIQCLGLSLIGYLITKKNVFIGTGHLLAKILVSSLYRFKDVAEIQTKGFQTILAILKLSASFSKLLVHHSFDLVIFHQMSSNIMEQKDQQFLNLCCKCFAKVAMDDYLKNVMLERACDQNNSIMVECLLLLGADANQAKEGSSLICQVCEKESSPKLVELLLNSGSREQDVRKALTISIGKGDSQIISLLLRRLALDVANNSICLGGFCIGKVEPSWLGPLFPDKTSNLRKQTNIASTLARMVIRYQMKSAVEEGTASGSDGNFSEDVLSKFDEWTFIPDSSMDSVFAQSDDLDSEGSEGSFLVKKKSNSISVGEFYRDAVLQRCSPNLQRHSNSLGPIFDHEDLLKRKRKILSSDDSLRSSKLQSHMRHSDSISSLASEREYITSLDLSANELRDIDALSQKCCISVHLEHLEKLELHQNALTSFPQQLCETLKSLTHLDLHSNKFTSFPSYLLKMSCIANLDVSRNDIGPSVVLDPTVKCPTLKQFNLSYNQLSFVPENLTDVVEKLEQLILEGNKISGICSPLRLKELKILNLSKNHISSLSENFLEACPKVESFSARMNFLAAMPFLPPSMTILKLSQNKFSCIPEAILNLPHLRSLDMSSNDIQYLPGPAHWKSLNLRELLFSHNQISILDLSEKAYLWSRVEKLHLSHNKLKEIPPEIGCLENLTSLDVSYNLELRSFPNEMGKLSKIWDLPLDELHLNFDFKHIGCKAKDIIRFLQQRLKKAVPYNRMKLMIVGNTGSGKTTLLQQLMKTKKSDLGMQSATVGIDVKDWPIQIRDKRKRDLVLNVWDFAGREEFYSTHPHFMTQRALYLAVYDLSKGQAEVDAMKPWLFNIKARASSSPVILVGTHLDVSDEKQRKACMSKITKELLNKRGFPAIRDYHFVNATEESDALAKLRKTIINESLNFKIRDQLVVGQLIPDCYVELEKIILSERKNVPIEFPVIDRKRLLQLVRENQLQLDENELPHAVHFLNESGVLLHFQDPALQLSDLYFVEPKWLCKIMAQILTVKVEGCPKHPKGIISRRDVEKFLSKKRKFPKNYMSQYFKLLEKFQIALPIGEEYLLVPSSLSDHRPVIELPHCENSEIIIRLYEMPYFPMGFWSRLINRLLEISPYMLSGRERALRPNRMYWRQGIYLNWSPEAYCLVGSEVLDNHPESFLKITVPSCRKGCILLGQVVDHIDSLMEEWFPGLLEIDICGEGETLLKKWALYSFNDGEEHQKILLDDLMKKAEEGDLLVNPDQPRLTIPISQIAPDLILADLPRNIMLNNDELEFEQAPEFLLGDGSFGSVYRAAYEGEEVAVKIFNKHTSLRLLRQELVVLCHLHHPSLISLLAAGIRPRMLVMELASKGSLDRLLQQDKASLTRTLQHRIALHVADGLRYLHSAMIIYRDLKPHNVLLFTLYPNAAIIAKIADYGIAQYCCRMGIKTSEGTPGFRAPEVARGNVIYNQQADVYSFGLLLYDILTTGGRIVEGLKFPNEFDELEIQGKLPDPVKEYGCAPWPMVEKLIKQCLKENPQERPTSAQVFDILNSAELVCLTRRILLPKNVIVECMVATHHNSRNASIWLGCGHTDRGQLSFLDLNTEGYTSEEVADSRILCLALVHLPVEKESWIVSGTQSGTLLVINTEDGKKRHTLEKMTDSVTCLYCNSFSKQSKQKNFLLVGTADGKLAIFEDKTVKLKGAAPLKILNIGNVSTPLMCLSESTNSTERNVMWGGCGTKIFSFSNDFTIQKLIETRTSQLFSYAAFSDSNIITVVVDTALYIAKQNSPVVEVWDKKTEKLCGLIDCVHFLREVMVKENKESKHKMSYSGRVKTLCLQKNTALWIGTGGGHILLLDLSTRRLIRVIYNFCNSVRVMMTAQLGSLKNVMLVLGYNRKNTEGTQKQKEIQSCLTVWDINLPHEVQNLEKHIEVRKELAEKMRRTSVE

Row | Dmax [5] [%] | DC50 [6] [nM] | SMILES | also measured
1 | ≥ 70 | < 10 | COc1c(N2CCN(C[C@@H]3CO[C@@H](CN4CCN(c5cc(-c6[nH]nc7ccc(OC8(C)CC8)cc67)ncn5)CC4)CO3)CC2)ccc2c1CN(C1CCC(=O)NC1=O)C2=O (some centres unmarked) [Compound 291, 3-[4-methoxy-5-(4-{[(2r,5s)-5-[(4-{6-[5-(1-methylcyclopropoxy)-2H-indazol-3-yl]pyrimidin-4-yl}piperazin-1-yl)methyl]-1,4-dioxan-2-yl]methyl}piperazin-1-yl)-1-oxo-2,3-dihydro-1H-isoindol-2-yl]piperidine-2,6-dione] | 
2 | 50 to 70 | < 10 | CC1(Oc2cc3c(-c4cc(N5CCC(CN6CC[C@@H](CN7CCN(c8ccc9c(c8F)CN(C8CCC(=O)NC8=O)C9=O)CC7)[C@@H](F)C6)CC5)ncn4)n[nH]c3cc2F)CC1 (some centres unmarked) [Compound 294, 3-[4-fluoro-5-(4-{[(3r,4s)-3-fluoro-1-[(1-{6-[6-fluoro-5-(1-methylcyclopropoxy)-1H-indazol-3-yl]pyrimidin-4-yl}piperidin-4-yl)methyl]piperidin-4-yl]methyl}piperazin-1-yl)-1-oxo-2,3-dihydro-1H-isoindol-2-yl]piperidine-2,6-dione] | 
3 | 50 to 70 | < 10 | CC1(Oc2ccc3n[nH]c(-c4cc(N5CCN(CC6(F)CN(CC7CCN(c8ccc9c(c8F)CN(C8CCC(=O)NC8=O)C9=O)CC7)C6)CC5)ncn4)c3c2)CC1 (centres unmarked) [Compound 306, 3-{4-fluoro-5-[4-({3-fluoro-3-[(4-{6-[5-(1-methylcyclopropoxy)-2H-indazol-3-yl]pyrimidin-4-yl}piperazin-1-yl)methyl]azetidin-1-yl}methyl)piperidin-1-yl]-1-oxo-2,3-dihydro-1H-isoindol-2-yl}piperidine-2,6-dione] | 
4 | 50 to 70 | < 10 | COc1c(N2CCC(CN3CCN(C[C@@H]4CCN(c5cc(-c6n[nH]c7ccc(OC8(C)CC8)cc67)ncn5)C4)CC3)CC2)ccc2c1CN(C1CCC(=O)NC1=O)C2=O (stereo partly drawn) [Compound 311, 3-(4-methoxy-5-{4-[(4-{[(3S)-1-{6-[5-(1-methylcyclopropoxy)-1H-indazol-3-yl]pyrimidin-4-yl}pyrrolidin-3-yl]methyl}piperazin-1-yl)methyl]piperidin-1-yl}-1-oxo-2,3-dihydro-1H-isoindol-2-yl)piperidine-2,6-dione] | 
5 | 50 to 70 | < 10 | COc1c(N2CCC3(CC2)CN([C@H]2C[C@H](OC4CCN(c5cc(-c6[nH]nc7ccc(OC8(C)CC8)cc67)ncn5)CC4)C2)C3)ccc2c1CN(C1CCC(=O)NC1=O)C2=O (some centres unmarked) [Compound 315, 3-(4-methoxy-1-oxo-5-{2-[(1r,3r)-3-[(1-{6-[5-(1-methylcyclopropoxy)-2H-indazol-3-yl]pyrimidin-4-yl}piperidin-4-yl)oxy]cyclobutyl]-2,7-diazaspiro[3.5]nonan-7-yl}-2,3-dihydro-1H-isoindol-2-yl)piperidine-2,6-dione] | 
6 | 50 to 70 | < 10 | C[C@@H]1CN(CC2CCN(c3cc(-c4n[nH]c5ccc(OC6(C)CC6)cc45)ncn3)CC2)C[C@H](C)N1CC1CCN(c2ccc3c(c2F)CN(C2CCC(=O)NC2=O)C3=O)CC1 (stereo partly drawn) [Compound 307, 3-[5-(4-{[(2R,6S)-2,6-dimethyl-4-[(1-{6-[5-(1-methylcyclopropoxy)-1H-indazol-3-yl]pyrimidin-4-yl}piperidin-4-yl)methyl]piperazin-1-yl]methyl}piperidin-1-yl)-4-fluoro-1-oxo-2,3-dihydro-1H-isoindol-2-yl]piperidine-2,6-dione] | 

The next lines start with the compound.

Row | SMILES | Dmax [5] [%] | DC50 [6] [nM] | also measured
7 | CC1(Oc2ccc3[nH]nc(-c4cc(N5CCN(CC6(F)CCN(CC7CCN(c8c(F)cc9c(c8F)CN(C8CCC(=O)NC8=O)C9=O)CC7)CC6)CC5)ncn4)c3c2)CC1 (centres unmarked) [Compound 220, 3-{4,6-difluoro-5-[4-({4-fluoro-4-[(4-{6-[5-(1-methylcyclopropoxy)-1H-indazol-3-yl]pyrimidin-4-yl}piperazin-1-yl)methyl]piperidin-1-yl}methyl)piperidin-1-yl]-1-oxo-2,3-dihydro-1H-isoindol-2-yl}piperidine-2,6-dione] |  |  | DC50 [1]: < 10 nM; Dmax [2]: 50 to 70%
8 | C[C@H]1CN(c2cc(-c3[nH]nc4cc(F)c(OC5(C)CC5)cc34)ncn2)CCN1CC1(F)CCN(CC2CCN(c3cc4c(cc3F)C(=O)N(C3CCC(=O)NC3=O)C4)CC2)CC1 (stereo partly drawn) [Compound 197, 3-(6-fluoro-5-{4-[(4-fluoro-4-{[(2S)-4-{6-[6-fluoro-5-(1-methylcyclopropoxy)-2H-indazol-3-yl]pyrimidin-4-yl}-2-methylpiperazin-1-yl]methyl}piperidin-1-yl)methyl]piperidin-1-yl}-1-oxo-2,3-dihydro-1H-isoindol-2-yl)piperidine-2,6-dione] |  |  | Dmax [3]: ≥ 70%; DC50 [4]: < 10 nM
9 | COc1c(N2CCC(O[C@H]3CC[C@H](CN4CCN(c5cc(-c6n[nH]c7cnc(OC8(C)CC8)cc67)ncn5)CC4)CC3)CC2)ccc2c1CN(C1CCC(=O)NC1=O)C2=O (some centres unmarked) [Compound 273, 3-[4-methoxy-1-oxo-5-(4-{[(1r,4r)-4-[(4-{6-[5-(1-methylcyclopropoxy)-1H-pyrazolo[3,4-c]pyridin-3-yl]pyrimidin-4-yl}piperazin-1-yl)methyl]cyclohexyl]oxy}piperidin-1-yl)-2,3-dihydro-1H-isoindol-2-yl]piperidine-2,6-dione] | < 50 | < 10 | 
10 | COc1c(N2CCC(CN3CCN(CC4CCN(c5cc(-c6n[nH]c7cc(F)c(OC8(C)CC8)cc67)ncn5)CC4)C(C)(C)C3)CC2)ccc2c1CN(C1CCC(=O)NC1=O)C2=O (centres unmarked) [Compound 278, 3-{5-[4-({4-[(1-{6-[6-fluoro-5-(1-methylcyclopropoxy)-1H-indazol-3-yl]pyrimidin-4-yl}piperidin-4-yl)methyl]-3,3-dimethylpiperazin-1-yl}methyl)piperidin-1-yl]-4-methoxy-1-oxo-2,3-dihydro-1H-isoindol-2-yl}piperidine-2,6-dione] | 50 to 70 | < 10 | 
11 | COc1c(N2CCC(CN3CCN(CC4CCN(c5cc(-c6n[nH]c7cnc(OC8(C)CC8)cc67)ncn5)CC4)[C@H](C)C3)CC2)ccc2c1CN(C1CCC(=O)NC1=O)C2=O (stereo partly drawn) [Compound 257, 3-[4-methoxy-5-(4-{[(3R)-3-methyl-4-[(1-{6-[5-(1-methylcyclopropoxy)-1H-pyrazolo[3,4-c]pyridin-3-yl]pyrimidin-4-yl}piperidin-4-yl)methyl]piperazin-1-yl]methyl}piperidin-1-yl)-1-oxo-2,3-dihydro-1H-isoindol-2-yl]piperidine-2,6-dione] | 50 to 70 | < 10 | 
12 | CC1(Oc2ccc3[nH]nc(-c4cc(N5CCN(C[C@H]6CC[C@H](CN7CCN(c8ccc9c(c8Cl)CN(C8CCC(=O)NC8=O)C9=O)CC7)CC6)CC5)ncn4)c3c2)CC1 (some centres unmarked) [Compound 370, 3-[4-chloro-1-oxo-5-(4-{[(1r,4r)-4-[(4-{6-[5-(1-methylcyclopropoxy)-1H-indazol-3-yl]pyrimidin-4-yl}piperazin-1-yl)methyl]cyclohexyl]methyl}piperazin-1-yl)-2,3-dihydro-1H-isoindol-2-yl]piperidine-2,6-dione] |  |  | DC50 [1]: < 10 nM; Dmax [2]: 50 to 70%
13 | CC1(Oc2cc3c(-c4cc(N5CCC(CN6CCN(CC7CCN(c8ccc9c(c8F)CN(C8CCC(=O)NC8=O)C9=O)CC7)C(C)(C)C6)CC5)ncn4)n[nH]c3cc2F)CC1 (centres unmarked) [Compound 275, 3-{4-fluoro-5-[4-({4-[(1-{6-[6-fluoro-5-(1-methylcyclopropoxy)-1H-indazol-3-yl]pyrimidin-4-yl}piperidin-4-yl)methyl]-2,2-dimethylpiperazin-1-yl}methyl)piperidin-1-yl]-1-oxo-2,3-dihydro-1H-isoindol-2-yl}piperidine-2,6-dione] | 50 to 70 | < 10 | 
14 | CC1(Oc2ccc3[nH]nc(-c4cc(N5CCC(OC6CCC7(CC6)CN(c6ccc8c(c6F)CN(C6CCC(=O)NC6=O)C8=O)C7)CC5)ncn4)c3c2)CC1 (centres unmarked) [Compound 374, 3-(4-fluoro-5-{7-[(1-{6-[5-(1-methylcyclopropoxy)-1H-indazol-3-yl]pyrimidin-4-yl}piperidin-4-yl)oxy]-2-azaspiro[3.5]nonan-2-yl}-1-oxo-2,3-dihydro-1H-isoindol-2-yl)piperidine-2,6-dione] |  |  | DC50 [1]: < 10 nM; Dmax [2]: 50 to 70%
15 | CC1(Oc2cc3c(-c4cc(N5CCC(CN6CCN(CC7CCN(c8cc9c(cc8F)C(=O)N(C8CCC(=O)NC8=O)C9)CC7)CC6)CC5)ncn4)n[nH]c3cn2)CC1 (centres unmarked) [Compound 191, 3-[6-fluoro-5-[4-[[4-[[1-[6-[5-(1-methylcyclopropoxy)-1H-pyrazolo[3,4-c]pyridin-3-yl]pyrimidin-4-yl]-4-piperidyl]methyl]piperazin-1-yl]methyl]-1-piperidyl]-1-oxo-isoindolin-2-yl]piperidine-2,6-dione] |  |  | Dmax [3]: ≥ 70%; DC50 [4]: < 10 nM
16 | COc1c(N2CCN(C[C@H]3CC[C@H](OC4CCN(c5cc(-c6n[nH]c7cnc(OC8(C)CC8)cc67)ncn5)CC4)CC3)CC2)ccc2c1CN(C1CCC(=O)NC1=O)C2=O (some centres unmarked) [Compound 268, 3-[4-methoxy-1-oxo-5-(4-{[(1r,4r)-4-[(1-{6-[5-(1-methylcyclopropoxy)-1H-pyrazolo[3,4-c]pyridin-3-yl]pyrimidin-4-yl}piperidin-4-yl)oxy]cyclohexyl]methyl}piperazin-1-yl)-2,3-dihydro-1H-isoindol-2-yl]piperidine-2,6-dione] | 50 to 70 | < 10 | 
